In US20210038730A1, “PEPTIDE NANOFIBERS” (UNIVERSITY OF PORTSMOUTH HIGHER EDUCATION CORPORATION, priority 2018, published 2021):

Columns and labels:
SC-1800 cells = assay: Cytotoxicity (MTT) in cerebral astrocytes; format: cell-based, human; conditions: 3.5-140 μM, 4 and 24 hours
Method: Human brain microvessel endothelial cells (hCMEC/D3) and cerebral astrocytes (SC-1800) were maintained in a humidified atmosphere of 5% CO2, and the medium was refreshed every 2-3 days. hCMEC/D3 cells were cultured in endothelial basal medium-2 (EBM-2) supplemented with the EGM-2 Bullet Kit and 2% (v/v) human serum. SC-1800 were cultured in astrocytes basal medium (ABM) supplemented with AGM Bullet Kit and 3% (v/v) human serum. […] Subsequently, complete growth medium (4 mL) was added and cells were centrifuged using a C-28A centrifuge (Boeco, Hamburg, Germany) at 1,000 rpm for 5 minutes. Supernatant was discarded, and pellet was re-suspended in 1 mL of medium. The cell number was counted using Trypan Blue Exclusion Assay in the Countess II Automated Cell Counter (Thermo Scientific, Paisley, UK). hCMEC/D3 and SC-1800 cells were seeded at 20,000 cells/cm^2 in complete medium and allowed to attach overnight. […] Cell metabolic activity was measured after 4 and 24 hours using (3-(4,5)-dimethylthiazol-2-yl)-2,5-diphenyltetrazolium bromide ([…]) assay. […] Subsequently, DMSO (100 μL) was added to dissolve the formazan crystals and absorbance was measured at 570 and 690 nm. Metabolic activity was calculated by subtracting the absorbance values at 690 nm to 570 nm to remove background, and dividing the values by the control to express as a percentage (%) of the control using the equation below. […]

[1] = Enzymatic stability in U-87 MG cell homogenates; conditions: analyte in brackets of label
[2] = Release from 3D printed cellulose-sodium alginate bioinks; format: physicochemical; conditions: PBS
Method: Peptide nanofibers were embedded in cellulose nanocrystals and sodium alginate hydrogels. Cellulose nanocrystals were synthesised by sulphuric acid degradation (45% w/v, 150 mls) of cellulose (15 g, Western Hemlock) at 50° C. over 90 minutes under stirring. Cold-deionised water was used to quench reaction and acid was removed by centrifugation (4,000 rpm, 10 minutes). Cellulose nanocrystals were dialysed (12-14 kDa for cytochrome C, Medicell Ltd) over 5 L with 6 changes over 24 hours. Resulting suspension was probe sonicated (400 watt, 23% amplitude, 10 minutes) in 50 mLs aliquots. The resulting suspension was centrifuged (4,000 rpm, 10 minutes) and supernatant was stored in the refrigerator. Cellulose nanocrystals (CNCs, 4.5% w/w, 2 g) were loaded onto a syringe attached to a three-way valve, where a syringe loaded sodium alginate (6% w/w in 4.6% glucose, 1.7 g). The CNCs were injected in the sodium alginate syringe and mixed 10 times (in each direction). Sample was collected in one syringe and a new syringe containing calcium chloride (0.1M, 0.9 mL). Sample was pushed into calcium chloride and mixed 5 times (in each direction) prior collecting the gel in one syringe and loading in cartridges. Peptide nanofibers (5 mg) were dispersed in 0.9 mL of 0.1M calcium chloride and mixed as above when needed. Release of paclitaxel loaded and TPGnRH gels in PBS (1×, 7.4, 6 mLs) was quantified as per HPLC method described previously (Example 7, Table 2). After an initial burst release, a controlled release profile is observed with gradual slow release over days. Resulting inks can be utilised for the production of nanofiber loaded implants for tumour patients.

GnRH-R = biological target: T1, GnRH-R (Homo sapiens, UniProt P30968); assay: Forskolin-induced intracellular cAMP ELISA; format: cell-based; conditions: forskolin 5 μM, 15 minutes
T1 construct: The intracellular cAMP was quantified using the Direct cAMP ELISA kit; endogenous in cells
T1 sequence (P30968 1-328): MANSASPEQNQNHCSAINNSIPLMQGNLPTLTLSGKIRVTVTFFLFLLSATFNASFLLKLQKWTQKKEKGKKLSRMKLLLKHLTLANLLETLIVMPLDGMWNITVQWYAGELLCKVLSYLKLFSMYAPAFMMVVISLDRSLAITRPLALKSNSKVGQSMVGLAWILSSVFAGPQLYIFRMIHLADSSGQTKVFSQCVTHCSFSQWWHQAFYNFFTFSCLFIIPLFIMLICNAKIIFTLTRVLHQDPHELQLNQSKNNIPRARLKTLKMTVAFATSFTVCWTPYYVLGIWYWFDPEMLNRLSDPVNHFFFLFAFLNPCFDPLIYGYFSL

[3] = Critical aggregation concentration, thioflavin T assay; format: physicochemical; conditions: PBS pH 7.4
Method: (§1) Critical aggregation concentration (CAC) of TPGnRH was determined using pyrene ^1-4 and thioflavin T ^5, 6. The peptide solutions (3.5-700 μM) were prepared in phosphate-buffered saline (PBS, 0.01 M, pH 7.4) either by a dilution of a stock solution at 700 μM or solutions prepared at the required concentration. In the pyrene assay, pyrene was dissolved in methanol at 250 μM, dispersed into a black 96-well plate, and methanol was evaporated overnight. TPGnRH solutions were added to pyrene and incubated at 37° C. for 24 hours under stirring. Fluorescence spectra was recorded λex at 334 nm. For the thioflavin T assay, peptide solutions were added to freshly prepared thioflavin Tat 50 μM. All peptide samples were incubated during 5 minutes at room temperature and fluorescence was measured at λex at 450 nm and λem at 482 nm.
PAX:TPGnRH formulation at a molar ratio 1:7.36 was diluted in PBS (0.01 M, pH 7.4) from 22,000 to 7 μM of TPGnRH. Diluted formulations (20 μL) were added to 80 μL of Thioflavin T at 50 μM, incubated for 5 minutes at room temperature, and fluorescence was measured at λex 450 and λem 482 in a black 96-well plate using the Synergy H1 Microplate Reader (BioteK, Vermont, USA).

[4] = Critical aggregation concentration, pyrene assay; format: physicochemical; conditions: PBS pH 7.4, 37° C., 24 hours
Method: as §1

In the case of `CCCCCCCCCCCCCCCC(=O)Oc1ccc(C[C@H](NC(=O)[C@H](CO)NC(=O)[C@H](Cc2c[nH]c3ccccc23)NC(=O)[C@H](Cc2c[nH]cn2)NC(=O)[C@@H](N)CCC(=O)O)C(=O)NCC(=O)N[C@@H](CC(C)C)C(=O)N[C@@H](CCCNC(=N)N)C(=O)N2CCC[C@H]2C(=O)NCC(N)=O)cc1` [TPGnRH, Tyrosine (O-Palmitoyl)-Glu-GnRH], the “cytotoxicity (metabolic activity, MTT)” value (SC-1800 cells) is reported as “no cytotoxicity”, the k [1] is reported as 0.1781 min⁻¹ and the “% release from 3D printed bioink” value ([2]; 0 minutes) is reported as 0%. The “% release from 3D printed bioink” value ([2]; 1 minutes) was 15.4 ± 9.6%, the “% release from 3D printed bioink” value ([2]; 5 minutes) was 15.4 ± 7.8% and the “% release from 3D printed bioink” value ([2]; 10 minutes) was 16.3 ± 11.5%. For the same compound, the “% release from 3D printed bioink” value ([2]; 15 minutes) was 15.4 ± 4.6%, the “% release from 3D printed bioink” value ([2]; 30 minutes) was 16.4 ± 4.9% and the “% release from 3D printed bioink” value ([2]; 45 minutes) was 14.7 ± 6.9%. The “% release from 3D printed bioink” value ([2]; 60 minutes) was 19.7 ± 8.5%, the “% release from 3D printed bioink” value ([2]; 90 minutes) was 20.6 ± 4.6% and the “% release from 3D printed bioink” value ([2]; 120 minutes) was 21.8 ± 9.4%. For the same compound, the “% release from 3D printed bioink” value ([2]; 240 minutes) was 20.6 ± 10.7%, the “% release from 3D printed bioink” value ([2]; 360 minutes) was 22.6 ± 7.4% and the “% release from 3D printed bioink” value ([2]; 1110 minutes) was 24.5 ± 7.9%. For the same compound, the “% release from 3D printed bioink” value ([2]; 1440 minutes) was 28.5 ± 9.8%, the “% release from 3D printed bioink” value ([2]; 2760 minutes) was 32.1 ± 9.7% and the “effect on forskolin-induced cAMP intracellular accumulation” value (GnRH-R) was “counteracted the forskolin-induced cAMP intracellular accumulation”. For the same compound, the “minimal CAC (self-assembly into long-axial nanofibers)” value [3] was 135 µM and the “CAC (self-assembly into aggregates)” value [4] was 7 µM.
